Laboratory results reported in US20230104936A1, “TRPML MODULATORS” (Casma Therapeutics, Inc., priority 2019, published 2023).
Where a name gives a salt, the structure may show the parent alone.

Tested on: TFEB
Assay: TFEB nuclear translocation assay, HeLa wt cells
Format: cell-based
Settings: 2 hrs compound treatment, Table 1 does not say HeLa wt or TRPML1 KO
How it was run: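 TFEB translocation into the nucleus of HeLa wt cells is scored by high-content immunofluorescence after 2 hrs of compound treatment at 37° C, reported as AC50.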

Compound	AC50 (Homo sapiens, HeLa, 2 h) [nM]	AC50 [nM]
C[C@@H]1CN(CC2CCN(c3c(F)cccc3NS(=O)(=O)c3ccc(S(=O)(=O)N(C)C)cc3)CC2)C[C@H](C)O1 [Compound A-755, N4-[2-(4-{[(2R,6S)-2,6-dimethylmorpholin-4-yl]methyl}piperidin-1-yl)-3-fluorophenyl]-N1,N1-dimethylbenzene-1,4-disulfonamide]	≤ 2000	–
CN(C)S(=O)(=O)c1ccc(S(=O)(=O)Nc2ccccc2N2CC=C(c3ccc(Cl)cc3F)CC2)cc1 [Compound A-32, N4-{2-[4-(4-chloro-2-fluorophenyl)-1,2,3,6-tetrahydropyridin-1-yl]phenyl}-N1,N1-dimethylbenzene-1,4-disulfonamide]	≤ 2000	–
COCC1(C)CCN(c2ccccc2NS(=O)(=O)Cc2ccccc2F)CC1 [Compound A-579, 1-(2-fluorophenyl)-N-{2-[4-(methoxymethyl)-4-methylpiperidin-1-yl]phenyl}methanesulfonamide]	2010 to 8000	–
CN(C)S(=O)(=O)c1ccc(S(=O)(=O)Cc2ccccc2N2CCN(Cc3ccccc3)CC2)cc1 [Compound A-406, 4-((2-(4-benzylpiperazin-1-yl)benzyl)sulfonyl)-N,N-dimethylbenzenesulfonamide]	2010 to 8000	–
CN(C)S(=O)(=O)c1ccc(S(=O)(=O)Nc2cccc(F)c2N2CCC3(CCN3)CC2)cc1 [Compound A-816, N4-(2-{1,7-diazaspiro[3.5]nonan-7-yl}-3-fluorophenyl)-N1,N1-dimethylbenzene-1,4-disulfonamide]	≥ 10000	–
O=S(=O)(Nc1ccccc1N1CCC(c2ccc(Cl)cc2F)CC1)c1cc(F)cc(F)c1 [Compound A-91, N-{2-[4-(4-chloro-2-fluorophenyl)piperidin-1-yl]phenyl}-3,5-difluorobenzene-1-sulfonamide]	≥ 10000	–
CC(c1cc(Cl)cnc1N1CCC(CN2CCC(F)(F)CC2)CC1)S(=O)(=O)c1ccc(S(=O)(=O)N(C)C)cc1 (centres unmarked) [Compound A-958, 4-[1-(5-chloro-2-{4-[(4,4-difluoropiperidin-1-yl)methyl]piperidin-1-yl}pyridin-3-yl)ethanesulfonyl]-N,N-dimethylbenzene-1-sulfonamide]	≤ 2000	–
CC1(C)CC2(CCN(c3ccccc3NS(=O)(=O)c3ccc4c(c3)COC4)CC2)CO1 [Compound A-714, N-(2-{3,3-dimethyl-2-oxa-8-azaspiro[4.5]decan-8-yl}phenyl)-1,3-dihydro-2-benzofuran-5-sulfonamide]	8010 to 9990	–
COc1ccc(S(=O)(=O)Nc2cnncc2N2CCC(c3ncc(F)cc3F)CC2)cc1 [Compound A-206, N-{5-[4-(3,5-difluoropyridin-2-yl)piperidin-1-yl]pyridazin-4-yl}-4-methoxybenzene-1-sulfonamide]	≥ 10000	–
CC(c1cccc(F)c1N1CCC(CN2C3CCC2COC3)CC1)S(=O)(=O)c1ccc2c(c1)CCC2 (centres unmarked) [Compound A-908, 8-[(1-{2-[1-(2,3-dihydro-1H-indene-5-sulfonyl)ethyl]-6-fluorophenyl}piperidin-4-yl)methyl]-3-oxa-8-azabicyclo[3.2.1]octane]	2010 to 8000	–
COCCC1CCN(c2ccccc2NS(=O)(=O)c2ccc(S(=O)(=O)N(C)C)cc2)CC1 [Compound A-611, N4-{2-[4-(2-methoxyethyl)piperidin-1-yl]phenyl}-N1,N1-dimethylbenzene-1,4-disulfonamide]	≤ 2000	–
CC(c1cccc(F)c1N1CCCCC1)S(=O)(=O)c1ccc2c(c1)CCS2(=N)=O (single isomer, unassigned) [Compound A-960]	–	≥ 10000
COc1ccc(S(=O)(=O)Nc2ccccc2N2CCN(Cc3ccc(F)cc3F)CC2)cc1 [Compound A-194, N-(2-{4-[(2,4-difluorophenyl)methyl]piperazin-1-yl}phenyl)-4-methoxybenzene-1-sulfonamide]	≥ 10000	–
CN(C)S(=O)(=O)c1ccc(S(=O)(=O)Nc2ccccc2N2CCC3(CC2)OCc2cc(F)ccc23)cc1 [Compound A-258, N4-(2-{5-fluoro-3H-spiro[2-benzofuran-1,4′-piperidin]-1′-yl}phenyl)-N1,N1-dimethylbenzene-1,4-disulfonamide]	≤ 2000	–
O=S(=O)(Nc1cc(Cl)ccc1N1CCCC12CCCOC2)c1ccc2c(c1)CCC2 (centres unmarked) [Compound A-405, N-(5-chloro-2-{7-oxa-1-azaspiro[4.5]decan-1-yl}phenyl)-2,3-dihydro-1H-indene-5-sulfonamide]	2010 to 8000	–
Cn1ccc(S(=O)(=O)Nc2ccccc2N2CCN(c3ccc(Cl)cc3F)CC2)n1 [Compound A-21, N-{2-[4-(4-chloro-2-fluorophenyl)piperazin-1-yl]phenyl}-1-methyl-1H-pyrazole-3-sulfonamide]	2010 to 8000	–
CS(=O)(=O)c1ccc(S(=O)(=O)Nc2ccccc2N2CCC3(CC2)OCc2cc(F)ccc23)cc1 [Compound A-332, N-(2-{5-fluoro-3H-spiro[2-benzofuran-1,4′-piperidin]-1′-yl}phenyl)-4-methanesulfonylbenzene-1-sulfonamide]	2010 to 8000	–
Cc1ccc(S(=O)(=O)Nc2ccccc2N2CCN(C(=O)C(O)c3ccccc3)CC2)cc1 (centres unmarked) [Compound A-349, N-{2-[4-(2-hydroxy-2-phenylacetyl)piperazin-1-yl]phenyl}-4-methylbenzene-1-sulfonamide]	≥ 10000	–
CC(Sc1ccc(S(=O)(=O)C(F)F)cc1)c1cccc(F)c1N1CCCCC1 (centres unmarked) [Compound A-971, 1-(2-{1-[(4-difluoromethanesulfonylphenyl)sulfanyl]ethyl}-6-fluorophenyl)piperidine]	2010 to 8000	–
O=S(=O)(CC12CC3CC(CC(C3)C1)C2)Nc1cccc(Cl)c1N1CCOCC1 [Compound A-394, 1-(adamantan-1-yl)-N-[3-chloro-2-(morpholin-4-yl)phenyl]methanesulfonamide]	2010 to 8000	–
Cc1ccc(CS(=O)(=O)Nc2ccccc2N2CCC3(CC2)COC(C)(C)C3)cc1C [Compound A-663, N-(2-{3,3-dimethyl-2-oxa-8-azaspiro[4.5]decan-8-yl}phenyl)-1-(3,4-dimethylphenyl)methanesulfonamide]	≤ 2000	–
C[C@H]1CN(CC2CCN(c3c(F)cccc3NS(=O)(=O)c3ccc(S(=O)(=O)N(C)C)cc3)CC2)[C@@H](C)CO1 [Compound A-862, N4-[2-(4-{[(2S,5S)-2,5-dimethylmorpholin-4-yl]methyl}piperidin-1-yl)-3-fluorophenyl]-N1,N1-dimethylbenzene-1,4-disulfonamide]	≤ 2000	–
Cc1cc(Cl)c(N2CCOCC2)c(NS(=O)(=O)c2ccc3c(c2)CCC3)c1 [Compound A-887, N-[3-chloro-5-methyl-2-(morpholin-4-yl)phenyl]-2,3-dihydro-1H-indene-5-sulfonamide]	≤ 2000	–
CCN1CCN(c2c(Cl)cccc2NS(=O)(=O)c2ccc3c(c2)CCC3)CC1 [Compound A-300, N-[3-chloro-2-(4-ethylpiperazin-1-yl)phenyl]-2,3-dihydro-1H-indene-5-sulfonamide hydrochloride]	2010 to 8000	–
COCC1(C)CCN(c2ccccc2NS(=O)(=O)c2ccc3c(c2)CCC3)CC1 [Compound A-608, N-{2-[4-(methoxymethyl)-4-methylpiperidin-1-yl]phenyl}-2,3-dihydro-1H-indene-5-sulfonamide]	≤ 2000	–
CC1(C)CC2(CCN(c3ccccc3NS(=O)(=O)c3ccc4c(c3)CCOC4)CC2)CO1 [Compound A-726, N-(2-{3,3-dimethyl-2-oxa-8-azaspiro[4.5]decan-8-yl}phenyl)-3,4-dihydro-1H-2-benzopyran-6-sulfonamide]	2010 to 8000	–
